According to patent US20260184748A1, “COMPOSITIONS COMPRISING OCTADECANEUROPEPTIDES (ODN) AND SYNTHETIC DERIVATIVES THEREOF AND METHODS OF USE FOR MODULATION OF FOOD INTAKE, OBESITY, BODY WEIGHT, NAUSEA, AND EMESIS” (The Trustees of the University of Pennsylvania, priority 2022, published 2026):
Values joined by “and” are separate entries in the source; they are usually repeats but may differ in a detail not shown here. Equal values may be shown once. Read-outs that look alike come from different tables or passages of the source. Where a SMILES comes first, the peptide text is derived from it. Where no end group is shown, it is not given here.

Assays:
PTGIR = PTGIR (Homo sapiens, UniProt P43119); test: Arrestin agonist mode; assay type: cell-based; conditions: read-out: RC50 (the source's name)
Sequence of PTGIR (P43119 whole entry): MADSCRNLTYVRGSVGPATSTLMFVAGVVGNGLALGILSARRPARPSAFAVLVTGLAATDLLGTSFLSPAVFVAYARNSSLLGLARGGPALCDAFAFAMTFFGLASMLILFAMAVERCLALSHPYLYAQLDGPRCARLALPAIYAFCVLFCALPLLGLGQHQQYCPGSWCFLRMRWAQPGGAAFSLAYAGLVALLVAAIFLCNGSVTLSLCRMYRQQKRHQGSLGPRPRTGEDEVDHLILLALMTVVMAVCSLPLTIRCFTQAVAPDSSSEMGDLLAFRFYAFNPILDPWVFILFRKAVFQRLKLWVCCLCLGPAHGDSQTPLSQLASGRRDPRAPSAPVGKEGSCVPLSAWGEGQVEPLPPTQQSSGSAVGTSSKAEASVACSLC

GPCR panel = test: gpcrMAX agonist mode (beta-arrestin recruitment), GPCR Biosensor Assays; assay type: cell-based; set-up: Max Response: unit not given here
P2RY12 = P2RY12 (Homo sapiens, UniProt Q9H244); test: Arrestin agonist mode; assay type: cell-based; conditions: read-out: RC50 (the source's name)
Sequence of P2RY12 (Q9H244 whole entry, one chain of several): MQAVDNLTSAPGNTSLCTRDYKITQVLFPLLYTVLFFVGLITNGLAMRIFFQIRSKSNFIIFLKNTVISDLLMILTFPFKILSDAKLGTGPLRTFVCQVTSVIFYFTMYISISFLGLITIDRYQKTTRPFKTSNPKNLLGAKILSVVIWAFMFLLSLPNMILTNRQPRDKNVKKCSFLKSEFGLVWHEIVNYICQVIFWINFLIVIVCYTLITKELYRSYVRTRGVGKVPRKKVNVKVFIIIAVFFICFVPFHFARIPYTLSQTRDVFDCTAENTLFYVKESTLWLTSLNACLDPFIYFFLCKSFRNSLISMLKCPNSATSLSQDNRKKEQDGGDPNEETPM

GPR109B = GPR109B (Homo sapiens, UniProt P49019); test: Arrestin agonist mode; assay type: cell-based; conditions: read-out: RC50 (the source's name)
Sequence of GPR109B (P49019 whole entry): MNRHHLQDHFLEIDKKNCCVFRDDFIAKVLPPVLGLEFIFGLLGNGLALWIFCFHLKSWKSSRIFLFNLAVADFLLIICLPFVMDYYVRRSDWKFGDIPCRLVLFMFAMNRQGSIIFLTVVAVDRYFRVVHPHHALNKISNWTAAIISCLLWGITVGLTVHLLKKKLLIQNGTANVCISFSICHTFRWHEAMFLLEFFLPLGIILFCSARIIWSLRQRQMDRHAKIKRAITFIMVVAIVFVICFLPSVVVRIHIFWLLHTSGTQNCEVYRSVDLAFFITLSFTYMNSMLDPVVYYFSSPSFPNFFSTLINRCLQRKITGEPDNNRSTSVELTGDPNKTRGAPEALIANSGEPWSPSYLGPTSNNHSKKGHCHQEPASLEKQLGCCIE

OXER1 = OXER1 (Homo sapiens, UniProt Q8TDS5); test: Arrestin agonist mode; assay type: cell-based; conditions: read-out: RC50 (the source's name)
Sequence of OXER1 (Q8TDS5 whole entry): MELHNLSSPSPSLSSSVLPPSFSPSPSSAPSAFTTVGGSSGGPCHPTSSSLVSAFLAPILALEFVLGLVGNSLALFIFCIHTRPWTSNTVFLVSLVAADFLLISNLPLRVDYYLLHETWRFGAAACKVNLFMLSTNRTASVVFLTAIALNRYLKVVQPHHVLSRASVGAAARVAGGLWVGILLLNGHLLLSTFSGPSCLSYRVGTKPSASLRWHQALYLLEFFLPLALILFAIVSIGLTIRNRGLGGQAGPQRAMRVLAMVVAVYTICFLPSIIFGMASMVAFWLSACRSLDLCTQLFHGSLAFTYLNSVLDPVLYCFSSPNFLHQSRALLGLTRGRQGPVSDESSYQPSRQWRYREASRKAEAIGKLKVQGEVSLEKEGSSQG

[1] = rat, in vivo
TBXA2R = TBXA2R (Homo sapiens, UniProt P21731); test: Arrestin agonist mode; assay type: cell-based; conditions: read-out: RC50 (the source's name)
Sequence of TBXA2R (P21731 whole entry): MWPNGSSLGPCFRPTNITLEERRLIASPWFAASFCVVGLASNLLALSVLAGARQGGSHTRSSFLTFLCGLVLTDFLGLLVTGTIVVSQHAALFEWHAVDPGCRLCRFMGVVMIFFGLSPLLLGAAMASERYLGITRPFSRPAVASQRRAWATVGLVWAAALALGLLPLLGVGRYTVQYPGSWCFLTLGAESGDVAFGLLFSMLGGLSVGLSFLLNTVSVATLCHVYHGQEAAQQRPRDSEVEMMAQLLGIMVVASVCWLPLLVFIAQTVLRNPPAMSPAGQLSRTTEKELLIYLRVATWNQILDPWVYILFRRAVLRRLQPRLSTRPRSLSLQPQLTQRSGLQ

KISS1R = KISS1R (Homo sapiens, UniProt Q969F8); test: Arrestin agonist mode; assay type: cell-based; conditions: read-out: RC50 (the source's name)
Sequence of KISS1R (Q969F8 whole entry): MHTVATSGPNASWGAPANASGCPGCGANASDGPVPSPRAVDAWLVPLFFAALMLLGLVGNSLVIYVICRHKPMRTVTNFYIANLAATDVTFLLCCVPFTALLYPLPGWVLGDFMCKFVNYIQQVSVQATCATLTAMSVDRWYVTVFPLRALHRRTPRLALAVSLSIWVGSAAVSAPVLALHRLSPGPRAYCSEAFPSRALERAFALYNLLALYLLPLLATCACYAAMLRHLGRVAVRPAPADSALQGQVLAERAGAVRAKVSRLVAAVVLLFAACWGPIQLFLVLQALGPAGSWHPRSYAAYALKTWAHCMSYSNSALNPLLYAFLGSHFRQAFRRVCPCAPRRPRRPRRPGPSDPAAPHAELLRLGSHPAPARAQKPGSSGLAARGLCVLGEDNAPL

[2] = rat, in vivo, ip
MLNR = MLNR (Homo sapiens, UniProt O43193); test: Arrestin agonist mode; assay type: cell-based; conditions: read-out: RC50 (the source's name)
Sequence of MLNR (O43193 whole entry): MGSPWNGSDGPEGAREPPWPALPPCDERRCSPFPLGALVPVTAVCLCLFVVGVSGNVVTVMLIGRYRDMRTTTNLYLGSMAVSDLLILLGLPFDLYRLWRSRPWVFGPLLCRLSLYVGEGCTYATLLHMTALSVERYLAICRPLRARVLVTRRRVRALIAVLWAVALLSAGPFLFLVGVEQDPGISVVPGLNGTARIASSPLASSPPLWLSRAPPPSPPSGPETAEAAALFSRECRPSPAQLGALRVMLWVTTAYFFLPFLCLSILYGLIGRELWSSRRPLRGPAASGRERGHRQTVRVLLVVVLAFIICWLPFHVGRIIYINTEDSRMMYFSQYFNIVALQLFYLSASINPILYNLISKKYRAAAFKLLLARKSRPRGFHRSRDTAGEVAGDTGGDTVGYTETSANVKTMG

GPR119 = GPR119 (Homo sapiens, UniProt Q8TDV5); test: Arrestin agonist mode; assay type: cell-based; conditions: read-out: RC50 (the source's name)
Sequence of GPR119 (Q8TDV5 whole entry): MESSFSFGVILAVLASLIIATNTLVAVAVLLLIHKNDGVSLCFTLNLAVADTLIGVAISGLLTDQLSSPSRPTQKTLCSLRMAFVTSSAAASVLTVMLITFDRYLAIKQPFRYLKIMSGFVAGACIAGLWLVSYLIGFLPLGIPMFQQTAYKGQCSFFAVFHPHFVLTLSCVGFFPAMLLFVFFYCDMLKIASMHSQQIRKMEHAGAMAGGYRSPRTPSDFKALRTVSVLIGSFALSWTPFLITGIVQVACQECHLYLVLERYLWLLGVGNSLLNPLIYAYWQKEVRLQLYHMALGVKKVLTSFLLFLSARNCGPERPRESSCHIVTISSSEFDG

PTAFR = PTAFR (Homo sapiens, UniProt P25105); test: Arrestin agonist mode; assay type: cell-based; conditions: read-out: RC50 (the source's name)
Sequence of PTAFR (P25105 whole entry): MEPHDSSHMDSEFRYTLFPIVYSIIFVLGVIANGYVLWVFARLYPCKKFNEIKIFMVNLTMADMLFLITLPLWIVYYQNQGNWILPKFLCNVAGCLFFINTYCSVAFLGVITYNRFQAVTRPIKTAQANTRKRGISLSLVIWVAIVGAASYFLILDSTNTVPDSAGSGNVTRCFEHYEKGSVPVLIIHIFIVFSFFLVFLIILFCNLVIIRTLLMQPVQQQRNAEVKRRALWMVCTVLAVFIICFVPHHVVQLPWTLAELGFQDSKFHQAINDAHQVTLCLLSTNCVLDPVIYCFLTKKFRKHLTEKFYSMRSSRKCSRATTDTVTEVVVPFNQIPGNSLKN

P2RY6 = P2RY6 (Homo sapiens, UniProt Q15077); test: Arrestin agonist mode; assay type: cell-based; conditions: read-out: RC50 (the source's name)
Sequence of P2RY6 (Q15077 whole entry): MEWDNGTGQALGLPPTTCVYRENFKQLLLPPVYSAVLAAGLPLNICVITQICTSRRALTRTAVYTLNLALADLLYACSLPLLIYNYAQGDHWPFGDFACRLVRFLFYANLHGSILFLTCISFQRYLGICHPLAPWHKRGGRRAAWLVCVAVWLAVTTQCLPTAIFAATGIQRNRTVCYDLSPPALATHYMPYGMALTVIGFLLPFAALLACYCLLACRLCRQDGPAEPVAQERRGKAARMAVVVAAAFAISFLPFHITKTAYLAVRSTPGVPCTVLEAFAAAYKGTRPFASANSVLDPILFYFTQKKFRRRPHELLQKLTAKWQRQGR

P2RY4 = P2RY4 (Homo sapiens, UniProt P51582); test: Arrestin agonist mode; assay type: cell-based; conditions: read-out: RC50 (the source's name)
Sequence of P2RY4 (P51582 whole entry): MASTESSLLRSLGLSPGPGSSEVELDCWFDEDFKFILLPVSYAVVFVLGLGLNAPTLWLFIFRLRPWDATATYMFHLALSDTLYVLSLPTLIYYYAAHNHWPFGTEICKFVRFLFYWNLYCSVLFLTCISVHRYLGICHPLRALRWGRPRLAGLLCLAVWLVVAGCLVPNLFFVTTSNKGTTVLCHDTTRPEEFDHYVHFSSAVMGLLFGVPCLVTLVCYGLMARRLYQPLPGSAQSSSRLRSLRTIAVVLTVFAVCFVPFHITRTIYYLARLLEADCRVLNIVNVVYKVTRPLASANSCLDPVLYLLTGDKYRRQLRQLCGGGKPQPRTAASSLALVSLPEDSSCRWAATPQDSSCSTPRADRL

P2RY2 = P2RY2 (Homo sapiens, UniProt P41231); test: Arrestin agonist mode; assay type: cell-based; conditions: read-out: RC50 (the source's name)
CCR2 = CCR2 (Homo sapiens, UniProt P41597); test: Arrestin agonist mode; assay type: cell-based; conditions: read-out: RC50 (the source's name)
Sequence of CCR2 (P41597 whole entry): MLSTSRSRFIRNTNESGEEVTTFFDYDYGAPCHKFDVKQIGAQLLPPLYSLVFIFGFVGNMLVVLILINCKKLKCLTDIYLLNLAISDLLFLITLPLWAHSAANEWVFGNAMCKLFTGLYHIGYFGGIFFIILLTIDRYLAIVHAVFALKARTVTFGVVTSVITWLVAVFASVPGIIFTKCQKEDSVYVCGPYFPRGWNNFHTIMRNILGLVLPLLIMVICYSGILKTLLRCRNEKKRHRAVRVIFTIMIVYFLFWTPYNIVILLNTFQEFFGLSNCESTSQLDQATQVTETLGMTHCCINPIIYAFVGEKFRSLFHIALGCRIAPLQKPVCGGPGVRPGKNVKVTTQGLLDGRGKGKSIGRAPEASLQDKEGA

[3] = Kaolin intake (pica) in rats; assay type: in vivo, rat
[4] = shrews; for emetic episodes: intraperitoneal
NPSR1B = NPSR1B (Homo sapiens, UniProt Q6W5P4); test: Arrestin agonist mode; assay type: cell-based; conditions: read-out: RC50 (the source's name)
Sequence of NPSR1B (Q6W5P4 1-377 isoform Q6W5P4-4): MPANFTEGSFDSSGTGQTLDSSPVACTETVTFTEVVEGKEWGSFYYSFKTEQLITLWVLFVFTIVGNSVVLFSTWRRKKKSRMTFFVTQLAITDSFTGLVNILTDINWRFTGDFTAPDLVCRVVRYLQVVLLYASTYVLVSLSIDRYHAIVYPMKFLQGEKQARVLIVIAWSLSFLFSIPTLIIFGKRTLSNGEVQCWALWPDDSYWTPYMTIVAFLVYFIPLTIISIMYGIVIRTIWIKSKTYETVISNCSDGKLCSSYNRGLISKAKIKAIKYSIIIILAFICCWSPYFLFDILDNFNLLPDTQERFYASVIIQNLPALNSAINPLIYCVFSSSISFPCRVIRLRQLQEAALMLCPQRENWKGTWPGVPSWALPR

[5] = 24 h body weight change in rats; assay type: in vivo, rat; conditions: 4th ventricle injection
DBI protein expression = test: Hindbrain DBI immunohistochemistry and quantification; assay type: in vivo, rat; conditions: 4th ventricle Ex-4 0.3 μg/2 μL in 24 h fasted HFD-maintained rats
Method: Rats maintained on chow or HFD were either ad libitum fed or fasted for 24 h. […] Rats were deeply anesthetized with KAX and transcardially perfused with 0.1 M phosphate-buffered saline (PBS; pH 7.4) followed by 4% paraformaldehyde in 0.1 M PBS on ice. Brains were removed from the crania and post-fixed in 4% paraformaldehyde for 24 h, then stored in 20% sucrose in 0.1 M PBS at 4° C. until sunk. Coronal dorsal vagal complex (DVC) sections (30 μm) were sliced and collected directly onto slides (12-550-15; Superfrost Plus, Fisher Scientific) using a cryostat and stored at −80° C. until the start of immunohistochemistry (IHC). Briefly, tissue was washed with 0.1 M PBS 3 times for 8 minutes and then incubated in blocking solution [5% normal donkey serum (Jackson Immunoresearch) in PBST; PBS with 0.3% triton X] followed by overnight incubation in rabbit anti-DBI primary antibody (1:500; ab231910, Abcam) and chicken anti-vimentin primary antibody (1:2000; ab24525, Abcam) at 4° C. […] Slides were visualized using fluorescence microscopy (BZ-X810, Keyence). Images analysis to quantify the fluorescent intensity of DBI protein staining in the nucleus solitary tractus (NTS) and area postrema (AP) as well as the % colocalization of DBI and vimentin staining in the AP, subpostrema, and 4th ventricle boarder was done using the HALO@FISH-IF and Area Quantification FL modules.

CC#CCC(C)[C@H](O)/C=C/[C@@H]1[C@H]2c3cccc(CCCC(=O)O)c3O[C@H]2C[C@H]1O (mixture of isomers) [Beraprost]
EC50 (PTGIR): 219 nM

COc1ccc2[nH]c(I)c(CCNC(C)=O)c2c1 [2-Iodomelatonin]
EC80 (GPCR panel): 2.77 nM | Max Response (GPCR panel): 102.67

CSc1nc(N)c2ncn([C@@H]3O[C@H](COP(=O)(O)OP(=O)(O)O)[C@@H](O)[C@H]3O)c2n1 [2-methylthio-ADP]
EC50 (P2RY12): 2.72 nM

CCCCCC(O)CC(=O)O (stereo not shown) [3-Hydroxyoctanoic Acid]
EC50 (GPR109B): 373000 nM

CCCCC/C=C\C/C=C\C/C=C\C=C\C(=O)CCCC(=O)O [5-OxoETE]
EC50 (OXER1): 1140 nM

CC(C)C[C@H](NC(=O)CNC(=O)[C@@H]1CCCN1C(=O)[C@@H](N)CCCNC(=N)N)C(=O)N[C@H](CC(C)C)C(=O)N[C@@H](CC(=O)O)C(=O)N[C@@H](CC(C)C)C(=O)N[C@@H](CCCCN)C(N)=O [AntOP, Arg-Pro-Gly-Leu-(D-Leu)-Asp-Leu-Lys] (HELM PEPTIDE1{R.P.G.L.[dL].D.L.K.[am]}$$$$V2.0)
effect of pretreatment on Ex-4-induced kaolin intake [1]: did not significantly elevate kaolin intake relative to controls

CCCCCCC(C)(C)c1ccc([C@@H]2C[C@H](O)CC[C@H]2CCCO)c(O)c1 [CP55940]
Max Response (GPCR panel): 104.27 and 99.599

CC(C)C[C@H](NC(=O)[C@H](CCCCN)NC(=O)CNC(=O)[C@H](CC(C)C)NC(=O)[C@@H](NC(=O)[C@@H]1CSSC[C@H](N)C(=O)N[C@@H](CO)C(=O)N[C@@H](CC(N)=O)C(=O)N[C@@H](CC(C)C)C(=O)N[C@@H](CO)C(=O)N[C@@H]([C@@H](C)O)C(=O)N1)C(C)C)C(=O)N[C@@H](CO)C(=O)N[C@@H](CCC(N)=O)C(=O)N[C@@H](CCC(=O)O)C(=O)N[C@@H](CC(C)C)C(=O)N[C@@H](Cc1c[nH]cn1)C(=O)N[C@@H](CCCCN)C(=O)N[C@@H](CC(C)C)C(=O)N[C@@H](CCC(N)=O)C(=O)N[C@H](C(=O)N[C@@H](Cc1ccc(O)cc1)C(=O)N1CCC[C@H]1C(=O)N[C@@H](CCCNC(=N)N)C(=O)N[C@H](C(=O)N[C@@H](CC(N)=O)C(=O)N[C@H](C(=O)NCC(=O)N[C@@H](CO)C(=O)NCC(=O)N[C@H](C(=O)N1CCC[C@H]1C(N)=O)[C@@H](C)O)[C@@H](C)O)[C@@H](C)O)[C@@H](C)O [Calcitonin]
Max Response (GPCR panel): 102.54 and 108.07 and 103.06

O=C(O)CCC/C=C\C[C@@H]1[C@@H](/C=C/[C@@H](O)COc2ccc(I)cc2)[C@H]2CC[C@@H]1O2 [I-BOP]
EC50 (TBXA2R): 21.3 nM

CC(C)C[C@H](NC(=O)CNC(=O)[C@H](Cc1ccccc1)NC(=O)[C@H](CO)NC(=O)[C@H](CC(N)=O)NC(=O)[C@H](Cc1c[nH]c2ccccc12)NC(=O)[C@H](CC(N)=O)NC(=O)[C@@H](N)Cc1ccc(O)cc1)C(=O)N[C@@H](CCCNC(=N)N)C(=O)N[C@@H](Cc1ccccc1)C(N)=O [Kisspeptin-10]
EC50 (KISS1R): 17.6 nM

CCCCCCCCCCCCCCCC(=O)N[C@@H](CCC(=O)NCCCC[C@H](NC(=O)[C@H](C)NC(=O)[C@H](C)NC(=O)[C@H](CCC(N)=O)NC(=O)CNC(=O)[C@H](CCC(=O)O)NC(=O)[C@H](CC(C)C)NC(=O)[C@H](Cc1ccc(O)cc1)NC(=O)[C@H](CO)NC(=O)[C@H](CO)NC(=O)[C@@H](NC(=O)[C@H](CC(=O)O)NC(=O)[C@H](CO)NC(=O)[C@@H](NC(=O)[C@H](Cc1ccccc1)NC(=O)[C@@H](NC(=O)CNC(=O)[C@H](CCC(=O)O)NC(=O)[C@H](C)NC(=O)[C@@H](N)Cc1cnc[nH]1)[C@@H](C)O)[C@@H](C)O)C(C)C)C(=O)N[C@@H](CCC(=O)O)C(=O)N[C@@H](Cc1ccccc1)C(=O)N[C@H](C(=O)N[C@@H](C)C(=O)N[C@@H](Cc1c[nH]c2ccccc12)C(=O)N[C@@H](CC(C)C)C(=O)N[C@H](C(=O)N[C@@H](CCCNC(=N)N)C(=O)NCC(=O)N[C@@H](CCCNC(=N)N)C(=O)NCC(=O)O)C(C)C)[C@@H](C)CC)C(=O)O [Liraglutide, liraglutide]
kaolin intake [2]: Kaolin intake was increased

CC[C@H](C)[C@H](NC(=O)[C@@H]1CCCN1C(=O)[C@@H](NC(=O)[C@@H](N)Cc1ccccc1)C(C)C)C(=O)N[C@@H](Cc1ccccc1)C(=O)N[C@H](C(=O)N[C@@H](Cc1ccc(O)cc1)C(=O)NCC(=O)N[C@@H](CCC(=O)O)C(=O)N[C@@H](CC(C)C)C(=O)N[C@@H](CCC(N)=O)C(=O)N[C@@H](CCCNC(=N)N)C(=O)N[C@@H](CCSC)C(=O)N[C@@H](CCC(N)=O)C(=O)N[C@@H](CCC(=O)O)C(=O)N[C@@H](CCCCN)C(=O)N[C@@H](CCC(=O)O)C(=O)N[C@@H](CCCNC(=N)N)C(=O)N[C@@H](CC(N)=O)C(=O)N[C@@H](CCCCN)C(=O)NCC(=O)N[C@@H](CCC(N)=O)C(=O)O)[C@@H](C)O [Motilin]
EC50 (MLNR): 1.59 nM

CCCCCCCC/C=C\CCCCCCCC(=O)NCCO [Oleoyl Ethanolamide]
EC50 (GPR119): 1840 nM

CCCCCCCCCCCCCCCCOC[C@H](COP(=O)([O-])OCC[N+](C)(C)C)OC(C)=O [PAF]
EC50 (PTAFR): 3.82 nM

CC[C@H](C)[C@H](NC(=O)CNC(=O)[C@H](CCCNC(=N)N)NC(=O)[C@H](CO)NC(=O)[C@H](C)NC(=O)[C@H](Cc1ccc(O)cc1)NC(=O)[C@H](Cc1c[nH]c2ccccc12)NC(=O)[C@H](C)NC(=O)[C@@H]1CCCN1C(=O)[C@H](CC(N)=O)NC(=O)[C@@H](NC(=O)[C@H](CC(=O)O)NC(=O)[C@@H]1CCCN1C(=O)[C@@H](NC(=O)[C@H](CCCNC(=N)N)NC(=O)[C@@H](NC(=O)[C@H](CCC(=O)O)NC(=O)[C@H](CCSC)NC(=O)[C@H](CO)NC(=O)[C@H](Cc1c[nH]cn1)NC(=O)[C@H](CCCNC(=N)N)NC(=O)[C@H](Cc1c[nH]cn1)NC(=O)[C@@H](NC(=O)[C@H](CCCNC(=N)N)NC(=O)[C@@H](N)CO)[C@@H](C)O)[C@@H](C)CC)[C@@H](C)O)[C@@H](C)CC)C(=O)N[C@@H](CCCNC(=N)N)C(=O)N1CCC[C@H]1C(=O)N[C@H](C(=O)NCC(=O)N[C@@H](CCCNC(=N)N)C(=O)N[C@@H](Cc1ccccc1)C(N)=O)C(C)C [PrRP-31]
EC80 (GPCR panel): 10.72 nM | Max Response (GPCR panel): 101.19

O=c1ccn([C@@H]2O[C@H](COP(=O)(O)OP(=O)(O)O)[C@@H](O)[C@H]2O)c(=O)[nH]1 [UDP]
EC50 (P2RY6): 13.3 nM

O=c1ccn([C@@H]2O[C@H](COP(=O)(O)OP(=O)(O)OP(=O)(O)O)[C@@H](O)[C@H]2O)c(=O)[nH]1 [UTP]
EC50 (P2RY4): 126 nM | EC50 (P2RY2): 431 nM

CCL2: control agonist
EC50 (CCR2): 2.63 nM

DVNTDRPGLLDLK-NH2 [TDN]
kaolin intake ([3]; 4th ventricle injection, HFD-maintained rats): mildly increase kaolin intake in HFD-maintained rats | kaolin intake ([3]; 4th ventricle injection, chow-maintained rats): did not alter kaolin intake in chow rats | kaolin intake ([3]; lateral ventricle injection, chow and HFD rats): did not affect kaolin intake

QATVGDVNTDRPGLLDLK-NH2 [ODN]
emesis ([4]; intraperitoneal 500 μg/kg or 5000 μg/kg): without including emesis | emetic episodes ([4]; high ODN dose): no emetic episodes were observed | emetic episodes ([4]; low ODN dose): one of 9 shrews had an emetic episode

SFRNGVGTGMKKTSFQRAKS [Neuropeptide S]
EC50 (NPSR1B): 23.6 nM

exendin-4 [Ex-4]
24 h body weight change ([5]; HFD-maintained rats): decreased 24 h body weight change relative to controls | 24 h body weight change ([5]; chow-maintained rats): decreased 24 h body weight change relative to controls | DBI protein expression in NTS and AP (DBI protein expression): not different between treatments in HFD-maintained rats
